Measurements from patent US20240108580A1, “DECOQUINATE LIPOSOME, PREPARATION METHOD THEREFOR AND USE THEREOF” (CAS LAMVAC (GUANGZHOU) BIOMEDICAL TECHNOLOGY CO.,LTD., priority 2019, published 2024).
Like-named read-outs stand apart in the source and are kept apart here.

How the values were obtained:
P. falciparum 3D7 = experiment: In-vitro inhibition potency against Plasmodium falciparum, 72 hours, nucleic acid dye; format: cell-based
Procedure: (§1) The volume was filled up to 1 L with ultrapure water, the pH adjusted to 7.2, subjected to sterilized filtration by using a 0.22 μm filtration membrane, and stored at 4° C. to obtain a complete culture medium; the incomplete medium was composed of 10.43 g of 1640 dry powder (GIBCO, 31800022), 5.96 g of Hepes, 2 g of sodium bicarbonate, 0.292 g of L-glutamine, 3.96 g of glucose, […] of hypoxanthine and 2.5 mg of gentamicin, prepared by the same method as for the complete culture medium. • (2) Drugs and formulations: pure decoquinate was dissolved in DMSO as a stock solution, chloroquine was dissolved in PBS, and artemisinin was dissolved in DMSO and then diluted with PBS. […] Before the experiment, all the above dissolved drug solutions were then diluted to series of 10 gradient concentrations with the incomplete medium. • (3) Culture and assay method: Plasmodium falciparum was cultured in the complete culture medium, and human red blood cells (RBC) were preserved in the incomplete culture medium. […] The culture was incubated at 37° C. in 5% CO2 for 72 hours, then nucleic acid dye was added, and the […] measured in a microplate reader. The half-maximal inhibitory concentration (IC50) of drugs was calculated with Graph Pad software, that is, the concentration when the inhibition rate of antimalarial drugs to P. falciparum reached 50% was calculated.

P. falciparum Dd2 = experiment: as above; format: cell-based
Procedure: as §1

[1] = cited from earlier work
[2] = 3D7, chloroquine-sensitive strain, liposome values are decoquinate concentrations, read-out: IC50 P. falciparum 3d7 Mean ± S.D.
[3] = DD2, multidrug-resistant (including chloroquine) strain, liposome values are decoquinate concentrations, read-out: IC50 P. falciparum Dd2 Mean ± S.D.

| SMILES | IC50 (P. falciparum 3D7; 3D7, read-out: IC50 P. falciparum 3d7 Mean ± S.D.) | IC50 (P. falciparum Dd2; DD2, read-out: IC50 P. falciparum Dd2 Mean ± S.D.) | IC50 (P. falciparum 3D7; [2]) | IC50 (P. falciparum Dd2; [3]) | Solubility in ethanol ([1]; ethanol) | Solubility in water ([1]; water) |
| --- | --- | --- | --- | --- | --- | --- |
| CCN(CC)CCCC(C)Nc1ccnc2cc(Cl)ccc12 (centres unmarked) [Chloroquine, chloroquine] | 23.75 ± 0.06 nM | 185 ± 16.2 nM | – | – | – | – |
| C[C@@H]1CC[C@H]2[C@@H](C)C(=O)O[C@@H]3O[C@@]4(C)CC[C@@H]1[C@]32OO4 [Artemisinin, artemisinin] | – | – | 16.4 ± 5.8 nM | 18.5 ± 0.5 nM | – | – |
| CCCCCCCCCCOc1cc2c(O)c(C(=O)OCC)cnc2cc1OCC [Pure DQ, ethyl 6-decyloxy-7-ethoxy-4-hydroxyquinoline-3-carboxylate] | – | – | 1.63 ± 0.13 nM | 1.57 ± 0.49 nM | slightly soluble | practically insoluble |
